Data set [1] deals with CKD rats. The data set is described as follows: Blood urine nitrogen (BUN) and serum creatine (CR) levels in 5/6 nephrectomy CKD rats. The settings on record: 5/6 nephrectomy rats. The class given is in vivo, Sprague Dawley rats. The protocol: Sprague Dawley rats (7 weeks old) were kept in pathogen-free environment under 12:12 light-dark cycle with food and water provided ad libitum, ambient temperature and relative humidity were respectively set at 24±2° C. and 50±20%. All procedures involving animal studies of the present disclosure comply with the “Guideline for the Care and Use of Laboratory Animals” issued by The Chinese-Taipei Society of Laboratory Animal Sciences. SD rats (about 10 weeks old) scheduled to undergo 5/6 nephrectomy or sham surgery were anesthetized by Zoletil 50/Xylazine (6 mg/1.3 mg/Kg, i.p.). Then, the left kidney was exposed, and the upper and lower poles were tied with a suture line, followed by right nephrectomy. The peritoneum and skin were then sutured, and the animals were returned to their individual cages. For animals underwent sham surgery, the left kidney was exposed in similar manner, but was then placed back into the abdominal cavity without further treatment, peritoneum and skin were then sutured. Two weeks after sham or 5/6 nephrectomy surgery, the animals were subjected to a 24-hour urine collection and non-invasive tail blood pressure measurement every 4 weeks. Four weeks after the surgery, rats underwent 5/6 nephrectomy or shame surgery were randomly assigned into two groups, i.e., the control and the telbivudine groups, in which the control group received saline treatment, and rats in the telbivudine group received telbivudine (10 mg/mL/Kg) treatment for 8 or 12 weeks. Animals were then sacrificed, and kidney and heart biopsy samples were obtained. In this example, to evaluate the therapeutic function of telbivudine, animals were first subject to 5/6 nephrectomy to induce in vivo kidney failure before being treated with telbivudine. 5/6 nephrectomy is a procedure in which one kidney of a test animal is removed and 2/3 of the remaining kidney is ablated, thereby mimics the progressive renal failure after loss of renal mass in humans. Briefly, approximately 50% of the remaining kidney of the rat was removed by polar excision 1-2 weeks after uni-nephrectomy. Then, the animals were randomly assigned to two groups, the telbivudine group and the control group. […] Blood and urine samples were respectively collected on designated days and analyzed for the levels of blood urine nitrogen (BUN), serum creatine (CR), and hepatic enzymes (i.e., alanine aminotransferase (ALT) and aspartate aminotransferase (AST)). Heart function was determined by monitoring the changes in diastolic parameter-Tissue Velocity Imaging ([…] ratio, and the strain in cardia muscle (C_strain), left ventrical mass ([…]). Animals were sacrificed after the experiments were finished, and kidney biopsy samples were obtained.

In data set [2] the test system is IL-6, TGF-β, TIMP1 and COL-1-A1 in kidney tissue of CKD rats. The data set is described as follows: Quantitative RT-PCR of inflammatory genes in kidney tissue of CKD rats. The data set is classed as in vivo, Sprague Dawley rats. The protocol: SD rats (about 10 weeks old) scheduled to undergo 5/6 nephrectomy or sham surgery were anesthetized by Zoletil 50/Xylazine (6 mg/1.3 mg/Kg, i.p.). Then, the left kidney was exposed, and the upper and lower poles were tied with a suture line, followed by right nephrectomy. The peritoneum and skin were then sutured, and the animals were returned to their individual cages. […] Two weeks after sham or 5/6 nephrectomy surgery, the animals were subjected to a 24-hour urine collection and non-invasive tail blood pressure measurement every 4 weeks. Four weeks after the surgery, rats underwent 5/6 nephrectomy or shame surgery were randomly assigned into two groups, i.e., the control and the telbivudine groups, in which the control group received saline treatment, and rats in the telbivudine group received telbivudine (10 mg/mL/Kg) treatment for 8 or 12 weeks. Animals were then sacrificed, and kidney and heart biopsy samples were obtained.
Total RNA was extracted from fresh frozen renal and heart tissues using the Trizol Reagent (Life Technologies), according to the manufacturer protocol. Briefly, renal cortex or heart tissue (150 mg) was homogenized with 1 ml Trizol, and RNA-containing aqueous phase was obtained by centrifugation. Following the precipitation of RNA by centrifugation with 0.5 volume isopropanol and purification with 75% ethanol, the extracted total RNA was dissolved in 80 μL nuclease-free deionized distilled water and stored at −20° C. The concentration and purity of RNA were determined by Nanodrop Spectrophotometer (Thermo Scientific). First-strand cDNAs were synthesized from template RNA (1 μg) using Transcriptor First Strand cDNA Synthesis Kit (Roche), according to the manufacturer's protocol. Real-time PCR was performed using 2 μL template in a 20-μL reaction containing 1 μM of each primer and 10 μLLightCyclerFastStartUniversal SYBR Green Master (ROX) (Roche). […]
(§1) 5/6 nephrectomy is a procedure in which one kidney of a test animal is removed and 2/3 of the remaining kidney is ablated, thereby mimics the progressive renal failure after loss of renal mass in humans. […] Blood and urine samples were respectively collected on designated days and analyzed for the levels of blood urine nitrogen (BUN), serum creatine (CR), and hepatic enzymes (i.e., alanine aminotransferase (ALT) and aspartate aminotransferase (AST)). Heart function was determined by monitoring the changes in diastolic parameter—Tissue Velocity Imaging (TVI_V), E/A ratio, and the strain in cardia muscle (C_strain), left ventrical mass (LVMASS). […]

Data set [3] relates to IL-6 and COL-1-A1 in heart tissue of CKD rats. The data set is described as follows: Western blot of IL-6 and COL-1-A1 in heart tissue of CKD rats. The class given is in vivo, Sprague Dawley rats. On the procedure: SD rats (about 10 weeks old) scheduled to undergo 5/6 nephrectomy or sham surgery were anesthetized by Zoletil 50/Xylazine (6 mg/1.3 mg/Kg, i.p.). Then, the left kidney was exposed, and the upper and lower poles were tied with a suture line, followed by right nephrectomy. The peritoneum and skin were then sutured, and the animals were returned to their individual cages. […] Two weeks after sham or 5/6 nephrectomy surgery, the animals were subjected to a 24-hour urine collection and non-invasive tail blood pressure measurement every 4 weeks. […]
as §1
A general note: A western blot detects proteins with antibodies after separation by electrophoresis.

Data set [4] concerns CKD rats. More on the design: species or system Sprague Dawley rats. To be noted: rat, in vivo. From the text:
5/6 nephrectomy is a procedure in which one kidney of a test animal is removed and 2/3 of the remaining kidney is ablated, thereby mimics the progressive renal failure after loss of renal mass in humans. Briefly, approximately 50% of the remaining kidney of the rat was removed by polar excision 1-2 weeks after uni-nephrectomy. Then, the animals were randomly assigned to two groups, the telbivudine group and the control group. Rats in the telbivudine group were orally fed with telbivudine (at a dosage of 100 mg/Kg) for 4, 8 or 12 weeks, while the animals in the control group were given just the water. Blood and urine samples were respectively collected on designated days and analyzed for the levels of blood urine nitrogen (BUN), serum creatine (CR), and hepatic enzymes (i.e., alanine aminotransferase (ALT) and aspartate aminotransferase (AST)). Heart function was determined by monitoring the changes in diastolic parameter—Tissue Velocity Imaging (TVI_V), E/A ratio, and the strain in cardia muscle (C_strain), left ventrical mass (LVMASS). Animals were sacrificed after the experiments were finished, and kidney biopsy samples were obtained.
In this example, the effect of telbivudine on liver function was investigated.

Where [5] appears, read: telbivudine orally 100 mg/Kg for 8 weeks, vs untreated CKD.
[6] abbreviates: telbivudine orally 100 mg/Kg for 12 weeks.

Data on 1 molecule can be found in patent US10525073B2, “Method for improving kidney and/or heart function in patients with kidney disease” (MacKay Memorial Hospital, priority 2015, dated 2020).

For the molecule `Cc1cn([C@@H]2C[C@@H](O)[C@H](CO)O2)c(=O)[nH]c1=O` [telbivudine], in data set [1] (setting [5]), the “level of BUN (blood urine nitrogen)” value is “significant reduction” and the “level of CR (serum creatine)” value is recorded as “significant reduction”. In data set [1] (setting [6]), the “level of BUN (blood urine nitrogen)” value is listed as “most significant” and the “level of CR (serum creatine)” value is on record as “most significant”. In addition, in data set [2], the “mRNA level of COL-1-A1” value is recorded as “reduced”, the “mRNA level of IL-6” value was “reduced”, the “mRNA level of TGF-β” value is reported as “reduced” and the “mRNA level of TIMP1” value was “reduced”. In data set [3], the “protein level of COL-1-A1” value is “markedly reduced” and the “protein level of IL-6” value is recorded as “markedly reduced”. In data set [4], the “level of alanine aminotransferase (ALT)” value is on record as “remained relatively the same”, the “level of aspartate aminotransferase (AST)” value was “remained relatively the same” and the “toxic effects toward liver function” value is listed as “does not possess any toxic effects”.
